Laboratory results from patent publication US20100298141A1, “SUBSTITUTED PYRIDINE N-OXIDE HERBICIDES” (E. I. DU PONT DE NEMOURS AND COMPANY, priority 2007, published 2010).

What was measured:
Italian ryegrass = assay: Test C pre-/postemergence test; type: in vivo, Lolium multiflorum
Procedure, shortened: (§1)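 Seeds were planted and treated preemergence with test chemical in a non-phytotoxic solvent mixture containing surfactant. Postemergence applications of the same formulation went onto plants 2 to 18 cm tall (1- to 4-leaf stage). A dash marks no test result.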

Russian thistle = assay: Test C pre-/postemergence test; type: in vivo, Salsola kali; conditions: Preemergence; for Russian Thistle plant response rating: scale 0 to 100
Procedure, shortened: as §1

itchgrass = assay: Test F preemergence test; type: in vivo, Rottboellia cochinchinensis; conditions: scale 0 to 100; for Itchgrass plant response rating: 62 g ai/ha
Procedure, shortened: (§2)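 Compounds in a non-phytotoxic solvent formulation with surfactant were applied before emergence after sowing, or, for sugarcane, also postemergence. Evaluation was visual, against controls, after 14 to 21 greenhouse days.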

velvetleaf = assay: Test A pre-/postemergence greenhouse test; type: in vivo, Abutilon theophrasti; conditions: for Velvetleaf plant response rating: 0 to 100 scale; for Plant response rating, Velvetleaf: 0 to 100 scale where 0 is no effect and 100 is complete control
Procedure, shortened: (§3)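 Planting was into mixed loam soil and sand; preemergence treatment followed as a directed soil spray. Concurrently, emerged plants (one- to two-leaf, 2–10 cm) received postemergence applications of identically formulated compound (non-phytotoxic solvent, surfactant). After approximately ten days under greenhouse conditions, injury was judged by eye against untreated plants.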

johnsongrass = assay: Test F preemergence test; type: in vivo, Sorghum halepense; conditions: scale 0 to 100; for Johnsongrass plant response rating: 62 g ai/ha
Procedure, shortened: as §2

goosegrass = assay: Test F preemergence test; type: in vivo, Eleusine indica; conditions: scale 0 to 100; for Goosegrass plant response rating: 62 g ai/ha
Procedure, shortened: as §2

Virginia dayflower = assay: Test F preemergence test; type: in vivo, Commelina virginica; conditions: scale 0 to 100; for Dayflower plant response rating: 62 g ai/ha
Procedure, shortened: as §2

purple nutsedge = assay: Test F preemergence test; type: in vivo, Cyperus rotundus; conditions: scale 0 to 100; for Purple Nutsedge plant response rating: 62 g ai/ha
Procedure, shortened: as §2

dallisgrass = assay: Test F preemergence test; type: in vivo, Paspalum dilatatum; conditions: scale 0 to 100; for Dallisgrass plant response rating: 62 g ai/ha
Procedure, shortened: as §2

green foxtail = assay: Test C pre-/postemergence test; type: in vivo, Setaria viridis
Procedure, shortened: as §1

broadleaf signalgrass = assay: Test F preemergence test; type: in vivo, Brachiaria platyphylla; conditions: scale 0 to 100; for Signalgrass plant response rating: 62 g ai/ha
Procedure, shortened: as §2

kochia = assay: Test F preemergence test; type: in vivo, Kochia scoparia; conditions: scale 0 to 100; for Kochia plant response rating: 62 g ai/ha
Procedure, shortened: as §2

barnyardgrass = assay: Test A pre-/postemergence greenhouse test; type: in vivo, Echinochloa crus-galli; conditions: for Barnyardgrass plant response rating: 0 to 100 scale; for Plant response rating, Barnyardgrass: 0 to 100 scale where 0 is no effect and 100 is complete control
Procedure, shortened: as §3

common groundsel = assay: Test F preemergence test; type: in vivo, Senecio vulgaris; conditions: scale 0 to 100; for Groundsel plant response rating: 62 g ai/ha
Procedure, shortened: as §2

[1] = 31 g ai/ha, Preemergence, scale 0 to 100
[2] = 62 g ai/ha, preemergence, scale 0 (no effect) to 100 (complete control)
[3] = Postemergence, 125 g ai/ha, scale 0 to 100, 0 no effect, 100 complete control
[4] = Postemergence, 250 g ai/ha, scale 0 to 100, 0 no effect, 100 complete control
[5] = preemergence, 125 g ai/ha, scale 0 (no effect) to 100 (complete control)
[6] = Postemergence, 125 g ai/ha, 0 is no effect, 100 is complete control
[7] = Postemergence, 500 g ai/ha, 0 is no effect, 100 is complete control
[8] = Preemergence, 125 g ai/ha, 0 no effect, 100 complete control
[9] = 62 g ai/ha, Preemergence, scale 0 to 100
[10] = Preemergence, 31 g ai/ha, scale 0 to 100 (0 no effect, 100 complete control)

SMILES: Cn1nc(C(F)(F)F)c(C[S+]([O-])c2cccc[n+]2[O-])c1OC(F)F (stereo not shown) [Compound 3]
- Ryegrass, Italian plant response rating (Italian ryegrass; [1]): 60
- Ryegrass, Italian plant response rating (Italian ryegrass; [2]): 100
- Plant response rating (0 to 100), Ryegrass, Italian (Italian ryegrass; Postemergence, 31 g ai/ha): 0
- Plant response rating (0 to 100), Ryegrass, Italian (Italian ryegrass; Postemergence, 62 g ai/ha): 0
- Plant response rating, Ryegrass, Italian (Italian ryegrass; [3]): 0
- Plant response rating, Ryegrass, Italian (Italian ryegrass; [4]): 40
- Plant response rating (0 to 100), Ryegrass, Italian (Italian ryegrass; Preemergence, 250 g ai/ha): 100
- Ryegrass, Italian plant response rating (Italian ryegrass; [5]): 100
- Russian Thistle plant response rating (Russian thistle; 31 g ai/ha): 0
- Plant response rating, Itchgrass (itchgrass; 8 g ai/ha, preemergence): 0
- Itchgrass plant response rating (itchgrass; Preemergence): 90
- Plant response rating, Itchgrass (itchgrass; Preemergence, 16 g ai/ha): 35
- Plant response rating, Itchgrass (itchgrass; Preemergence, 31 g ai/ha): 70
- Velvetleaf plant response rating (velvetleaf; [6]): 50
- Velvetleaf plant response rating (velvetleaf; [7]): 90
- Velvetleaf plant response rating (velvetleaf; [8]): 70
- Plant response rating, Velvetleaf (velvetleaf; Preemergence, 500 g ai/ha): 90
- Plant response rating, Johnsongrass (johnsongrass; 8 g ai/ha, preemergence): 0
- Johnsongrass plant response rating (johnsongrass; Preemergence): 95
- Plant response rating, Johnsongrass (johnsongrass; Preemergence, 16 g ai/ha): 65
- Plant response rating, Johnsongrass (johnsongrass; Preemergence, 31 g ai/ha): 90
- Plant response rating, Goosegrass (goosegrass; 8 g ai/ha, preemergence): 0
- Goosegrass plant response rating (goosegrass; Preemergence): 98
- Plant response rating, Goosegrass (goosegrass; Preemergence, 16 g ai/ha): 40
- Plant response rating, Goosegrass (goosegrass; Preemergence, 31 g ai/ha): 95
- Plant response rating, Dayflower (Virginia dayflower; 8 g ai/ha, preemergence): 0
- Dayflower plant response rating (Virginia dayflower; Preemergence): 90
- Plant response rating, Dayflower (Virginia dayflower; Preemergence, 16 g ai/ha): 0
- Plant response rating, Dayflower (Virginia dayflower; Preemergence, 31 g ai/ha): 90
- Plant response rating, Purple Nutsedge (purple nutsedge; 8 g ai/ha, preemergence): 0
- Purple Nutsedge plant response rating (purple nutsedge; Preemergence): 80
- Plant response rating, Purple Nutsedge (purple nutsedge; Preemergence, 16 g ai/ha): 60
- Plant response rating, Purple Nutsedge (purple nutsedge; Preemergence, 31 g ai/ha): 75
- Plant response rating, Dallisgrass (dallisgrass; 8 g ai/ha, preemergence): 0
- Dallisgrass plant response rating (dallisgrass; Preemergence): 98
- Plant response rating, Dallisgrass (dallisgrass; Preemergence, 16 g ai/ha): 0
- Plant response rating, Dallisgrass (dallisgrass; Preemergence, 31 g ai/ha): 75
- Foxtail, Green plant response rating (green foxtail; [1]): 75
- Foxtail, Green plant response rating (green foxtail; [2]): 85
- Plant response rating (0 to 100), Foxtail, Green (green foxtail; Postemergence, 31 g ai/ha): 0
- Plant response rating, Foxtail, Green (green foxtail; Postemergence, 62 g ai/ha, scale 0 to 100, 0 no effect, 100 complete control): 0
- Plant response rating, Foxtail, Green (green foxtail; [3]): 10
- Plant response rating, Foxtail, Green (green foxtail; [4]): 55
- Plant response rating (0 to 100), Foxtail, Green (green foxtail; Preemergence, 250 g ai/ha): 100
- Foxtail, Green plant response rating (green foxtail; [5]): 98
- Plant response rating, Signalgrass (broadleaf signalgrass; 8 g ai/ha, preemergence): 0
- Plant response rating, Signalgrass (broadleaf signalgrass; 16 g ai/ha, preemergence): 0
- Signalgrass plant response rating (broadleaf signalgrass; Preemergence): 75
- Plant response rating, Signalgrass (broadleaf signalgrass; Preemergence, 31 g ai/ha): 75
- Plant response rating, Kochia (kochia; 8 g ai/ha, preemergence): 20
- Kochia plant response rating (kochia; Preemergence): 100
- Plant response rating, Kochia (kochia; Preemergence, 16 g ai/ha): 30
- Plant response rating, Kochia (kochia; Preemergence, 31 g ai/ha): 65
- Barnyardgrass plant response rating (barnyardgrass; [6]): 80
- Barnyardgrass plant response rating (barnyardgrass; [7]): 90
- Barnyardgrass plant response rating (barnyardgrass; [8]): 80
- Plant response rating, Barnyardgrass (barnyardgrass; Preemergence, 500 g ai/ha): 100
- Plant response rating, Groundsel (common groundsel; 8 g ai/ha, preemergence): 0
- Groundsel plant response rating (common groundsel; Preemergence): 100
- Plant response rating, Groundsel (common groundsel; Preemergence, 16 g ai/ha): 0
- Plant response rating, Groundsel (common groundsel; Preemergence, 31 g ai/ha): 60

SMILES: Cc1cc[n+]([O-])c([S+]([O-])Cc2c(C(F)(F)F)nn(C)c2Cl)c1 (racemic) [Compound 20]
- Ryegrass, Italian plant response rating (Italian ryegrass; [9]): 60
- Plant response rating, Ryegrass, Italian (Italian ryegrass; [10]): 30
- Russian Thistle plant response rating (Russian thistle; 62 g ai/ha): 100
- Plant response rating, Russian Thistle (Russian thistle; 31 g ai/ha, scale 0 to 100 (0 no effect, 100 complete control)): 100
- Plant response rating, Itchgrass (itchgrass; 8 g ai/ha, preemergence): 0
- Itchgrass plant response rating (itchgrass; Preemergence): 70
- Plant response rating, Itchgrass (itchgrass; Preemergence, 16 g ai/ha): 0
- Plant response rating, Itchgrass (itchgrass; Preemergence, 31 g ai/ha): 15
- Velvetleaf plant response rating (velvetleaf; [6]): 30
- Velvetleaf plant response rating (velvetleaf; [7]): 60
- Velvetleaf plant response rating (velvetleaf; [8]): 0
- Plant response rating, Velvetleaf (velvetleaf; Preemergence, 500 g ai/ha): 60
- Plant response rating, Johnsongrass (johnsongrass; 8 g ai/ha, preemergence): 0
- Johnsongrass plant response rating (johnsongrass; Preemergence): 90
- Plant response rating, Johnsongrass (johnsongrass; Preemergence, 16 g ai/ha): 50
- Plant response rating, Johnsongrass (johnsongrass; Preemergence, 31 g ai/ha): 60
- Plant response rating, Goosegrass (goosegrass; 8 g ai/ha, preemergence): 0
- Goosegrass plant response rating (goosegrass; Preemergence): 75
- Plant response rating, Goosegrass (goosegrass; Preemergence, 16 g ai/ha): 15
- Plant response rating, Goosegrass (goosegrass; Preemergence, 31 g ai/ha): 60
- Plant response rating, Dayflower (Virginia dayflower; 8 g ai/ha, preemergence): 0
- Dayflower plant response rating (Virginia dayflower; Preemergence): 60
- Plant response rating, Dayflower (Virginia dayflower; Preemergence, 16 g ai/ha): 0
- Plant response rating, Dayflower (Virginia dayflower; Preemergence, 31 g ai/ha): 0
- Plant response rating, Purple Nutsedge (purple nutsedge; 8 g ai/ha, preemergence): 0
- Purple Nutsedge plant response rating (purple nutsedge; Preemergence): 25
- Plant response rating, Purple Nutsedge (purple nutsedge; Preemergence, 16 g ai/ha): 0
- Plant response rating, Purple Nutsedge (purple nutsedge; Preemergence, 31 g ai/ha): 0
- Plant response rating, Dallisgrass (dallisgrass; 8 g ai/ha, preemergence): 0
- Dallisgrass plant response rating (dallisgrass; Preemergence): 75
- Plant response rating, Dallisgrass (dallisgrass; Preemergence, 16 g ai/ha): 0
- Plant response rating, Dallisgrass (dallisgrass; Preemergence, 31 g ai/ha): 20
- Foxtail, Green plant response rating (green foxtail; [9]): 100
- Plant response rating, Foxtail, Green (green foxtail; [10]): 98
- Plant response rating (0 to 100), Foxtail, Green (green foxtail; Preemergence, 250 g ai/ha): 100
- Plant response rating, Signalgrass (broadleaf signalgrass; 8 g ai/ha, preemergence): 50
- Plant response rating, Signalgrass (broadleaf signalgrass; 16 g ai/ha, preemergence): 35
- Signalgrass plant response rating (broadleaf signalgrass; Preemergence): 75
- Plant response rating, Signalgrass (broadleaf signalgrass; Preemergence, 31 g ai/ha): 65
- Plant response rating, Kochia (kochia; 8 g ai/ha, preemergence): 0
- Kochia plant response rating (kochia; Preemergence): 50
- Plant response rating, Kochia (kochia; Preemergence, 16 g ai/ha): 0
- Plant response rating, Kochia (kochia; Preemergence, 31 g ai/ha): 0
- Barnyardgrass plant response rating (barnyardgrass; [6]): 40
- Barnyardgrass plant response rating (barnyardgrass; [7]): 80
- Barnyardgrass plant response rating (barnyardgrass; [8]): 70
- Plant response rating, Barnyardgrass (barnyardgrass; Preemergence, 500 g ai/ha): 100
- Plant response rating, Groundsel (common groundsel; 8 g ai/ha, preemergence): 0
- Groundsel plant response rating (common groundsel; Preemergence): 0
- Plant response rating, Groundsel (common groundsel; Preemergence, 16 g ai/ha): 0
- Plant response rating, Groundsel (common groundsel; Preemergence, 31 g ai/ha): 0
